Literature values, collected in patent US5900414A, “Methods for administering integrin receptor antagonists” (Merck & Co., Inc., priority 1997, dated 1999).
Positions of bridges follow the written chain, without caps; N, C: chain ends. Non-standard residues stand in square brackets, D forms with d. Residues, ends and D or L forms follow the SMILES beside them. hArg = N=C(N)NCCCC[C@H](N)C(=O)O; Mpa = O=C(O)CCS

Columns and labels:
[1] = tested on: αv β3
[2] = tested on: GPIIa/IIIa
[3] = tested on: GPIIb/IIIa
[4] = prodrug

## N=C(N)NCCCC[C@@H]1NC(=O)CCSSC[C@@H](C(N)=O)NC(=O)[C@@H]2CCCN2C(=O)[C@H](Cc2c[nH]c3ccccc23)NC(=O)[C@H](CC(=O)O)NC(=O)CNC1=O [Integrilin] ([Mpa][hArg]GDWPC-NH2; disulfide 1-7)
[1]
  effect on ligand binding to αv β3: very little effect
[2]
  ligand binding to GPIIa/IIIa: inhibits ligand binding

## CCCCS(=O)(=O)N[C@@H](Cc1ccc(OCCCCC2CCNCC2)cc1)C(=O)O [MK-383]
[3]
  selectivity for GPIIb/IIIa: selective for GPIIb/IIIa

## N=C(N)c1ccc(C(=O)N[C@@H](Cc2ccc(O)cc2)C(=O)N2CCC(OCC(=O)O)CC2)cc1 [Ro 44-9883]
[3]
  selectivity for GPIIb/IIIa: selective for GPIIb/IIIa

## C#C[C@H](CC(=O)OCC)NC(=O)CCC(=O)Nc1ccc(C(=N)N)cc1 [SC54684]
[4]
  oral bioavailability: high oral bioavailability
